From US9062014B2, “Crystalline forms of (R)-5-[3-chloro-4-(2,3-dihydroxy-propoxy)-benz[Z]ylidene]-2-([Z]-propylimino)-3-0-tolyl-thiazolidin-4-one” (ACTELION PHARMACEUTICALS LTD., priority 2008, dated 2015)

Test: Hygroscopicity by gravimetric vapour sorption (GVS)
Assay type: physicochemical
Conditions: 25° C.; for Hygroscopicity classification according to the European Pharmacopea Technical Guide (1999 edition): mass change between 40% and 80% relative humidity, first adsorption scan; for mass gain: mass change between 40% relative humidity and 80% relative humidity in the first adsorption scan
Description: Gravimetric Vapour Sorption (GVS)
Sorption isotherms are obtained using a Hiden IGASorp moisture sorption analyser, controlled by CFRSorp software. The sample temperature is maintained at 25° C. by a Huber re-circulating water bath. The humidity is controlled by mixing streams of dry and wet nitrogen, with a total flow rate of 250 ml·min^−1. The relative humidity is measured by a calibrated Vaisala RH probe (dynamic range of 0-95% RH), located near the sample. The weight change of the sample as a function of % RH is constantly monitored by the microbalance (accuracy±0.001 mg).
Typically 10-20 mg of sample is placed in a tared mesh stainless steel basket under ambient conditions. The sample is loaded and unloaded at 40% RH and 25° C. (typical room conditions).
A moisture sorption isotherm is performed as outlined below (2 scans giving 1 complete cycle). The standard isotherm is performed at 25° C. at 10% RH intervals over a 0-90% RH range.
The software uses a least squares minimisation procedure together with a model of the mass relaxation, to predict an asymptotic value. The measured mass relaxation value must be within 5% of that predicted by the software, before the next % RH value is selected. The minimum equilibration time is set to 1 hour and the maximum to 4 hours.
Classification is done according to the European Pharmacopea Technical Guide (1999 edition) (e.g. slightly hygroscopic: increase in mass is less than 2% and equal to or greater than 0.2% mass/mass; hygroscopic: increase in mass is less than 15% and equal to or greater than 2% mass/mass). The mass change between 40% relative humidity and 80% relative humidity in the first adsorption scan is considered.

mass gain [%]	Compound	Hygroscopicity classification according to the European Pharmacopea Technical Guide (1999 edition)
< 0.2	CCC/N=C1\S/C(=C\c2ccc(OC[C@H](O)CO)c(Cl)c2)C(=O)N1c1ccccc1C [Form C, (R)-5-[3-chloro-4-(2,3-dihydroxy-propoxy)-benz[Z]ylidene]-2-([Z]-propylimino)-3-o-tolyl-thiazolidin-4-one]	Non-hygroscopic
0.2	CCC/N=C1\S/C(=C\c2ccc(OC[C@H](O)CO)c(Cl)c2)C(=O)N1c1ccccc1C [Form II, (R)-5-[3-chloro-4-(2,3-dihydroxy-propoxy)-benz[Z]ylidene]-2-([Z]-propylimino)-3-o-tolyl-thiazolidin-4-one]	Slightly hygroscopic (slightly hygroscopic: increase in mass is less than 2% and equal to or greater than 0.2% mass/mass)
< 0.2	CCC/N=C1\S/C(=C\c2ccc(OC[C@H](O)CO)c(Cl)c2)C(=O)N1c1ccccc1C [Form A, (R)-5-[3-chloro-4-(2,3-dihydroxy-propoxy)-benz[Z]ylidene]-2-([Z]-propylimino)-3-o-tolyl-thiazolidin-4-one]	Non-hygroscopic
2.1	CCC/N=C1\S/C(=C\c2ccc(OC[C@H](O)CO)c(Cl)c2)C(=O)N1c1ccccc1C [Amorphous, (R)-5-[3-chloro-4-(2,3-dihydroxy-propoxy)-benz[Z]ylidene]-2-([Z]-propylimino)-3-o-tolyl-thiazolidin-4-one]	Hygroscopic (hygroscopic: increase in mass is less than 15% and equal to or greater than 2% mass/mass)
